From patent US20260199444A1, “VACCINES AGAINST PROTEIN TYROSINE PHOSPHATASE RECEPTOR TYPE Z1 (PTPRZ1) -POSITIVE TUMORS” (ALTEVAX, priority 2022, published 2026)

Tests used:
HLA-A2/DR1 mice [1] = test: Melanin-based vaccine (plus CpG-28) subcutaneous immunization, CD8 T-cell response by IFNg-SFC count of re-stimulated splenocytes; assay type: in vivo; details: for T-cell Immune response: mean +/− SEM (number of mice): peptide 10 μg/mouse with synthetic melanin (peptide/L-Dopa 1/4) and CpG-28 10 μg/mouse, subcutaneous, day 8, splenocytes re-stimulated with the corresponding MHC class I epitope; for immune response after immunization (in words): melanin-based vaccine, HLA-A2/DR1 mice
Text: For the purpose of selecting a relevant PTPRZ1 antigen to be used in human patients, several peptides containing various PTPRZ1 immune epitopes were screened. The immunogenicity of these various peptides were screened by vaccinations in HLA-A2/DR1 mice (also known as Surel1 model). HLA-A2/DR1 mice are transgenic mice mimicking the human's immune system. As a vaccine procedure for screening, a melanin-based vaccine was used, as described in WO2021165306.
Using a melanin-based vaccine in HLA-A2/DR1 mice, these epitopes were then screened using peptides (SEQ ID NO: 5 to SEQ ID NO: 8) containing the epitope and an additional cysteine at the NH2-terminal, as it was disclosed in WO2021165306 that this modification increases the efficacy of melanin-based vaccine.
For immunizations, L-Dopa (0.8 mg/ml) underwent an oxidative polymerization at pH 8.5 in aerobic conditions for 2 hours at 60° C. The reaction mixture was then filtered on a 10 kDa filter, and the retentate containing the synthetic melanin was resuspended in phosphate buffer. Peptides (10 μg/mouse) containing the epitopes (underlined) were then added (at the weight ratio peptide/L-Dopa=1/4) and the mixtures were used for subcutaneous immunizations in mice. Phosphorothioate oligonucleotide CpG-28 (5′-[…], SEQ ID NO: 16) was added to vaccine formulations (10 μg/mouse) just before the immunizations. Mice were sacrificed on day 8 and the CD8 T-cell response was performed as described in Carpentier; 2017. Briefly, splenocytes were re-stimulated in vitro with the corresponding MHC class I-epitope (non-conjugated to melanin) and the numbers of IFNg-SFCs (Spot forming cells) were measured and expressed as Mean+/−S.E.M.

HLA-A2/DR1 mice [2] = test: Peptide plus CpG-28 without melanin, subcutaneous immunization, CD8 T-cell response by IFNg-SFC count of re-stimulated splenocytes; assay type: in vivo; details: for T-cell Immune response: mean +/− SEM (number of mice): peptide 10 μg/mouse with CpG-28 10 μg/mouse, no melanin, subcutaneous, day 8, splenocytes re-stimulated with the corresponding MHC class I epitope
Experimental: In a different adjuvant formulation, SEQ ID NO: 4 and SEQ ID NO: 14 were studied in HLA-A2/DR1 mice.
The peptides (10 μg/mouse) were mixed with the TLR9 agonist CpG-28 (SEQ ID NO: 16) (10 μg/mouse) and the mixtures were used for subcutaneous immunizations in mice. Mice were sacrificed on day 8 and the CD8 T-cell response was performed as described in Carpentier; 2017. Briefly, splenocytes were re-stimulated in vitro with the corresponding MHC class I-epitope (non-conjugated to melanin) and the numbers of IFNg-SFCs (Spot forming cells) were measured and expressed as Mean+/−S.E.M.

patients = details: glioblastoma patients, Hilf et al (2019); cited from earlier work
transgenic SURE mice = test: Cross reactivity of T-cell responses after immunization with SEQ 14, splenocytes re-stimulated with SEQ 14 or native epitope SEQ 4; assay type: in vivo; details: immunized with SEQ ID NO: 14, day 8, re-stimulation 18 hours, 5 μg/ml to 0.3 ng/ml, FIG. 1
Experimental: FIG. 1: cross reactivity of T-cell responses obtained after immunizations with SEQ 14 in transgenic SURE mice. Mice were immunized against SEQ 14, as described in table 1, and sacrificed on day 8. The splenocytes (5.10^5 cells/well) were re-stimulated in vitro for 18 hours with either SEQ 14 or the native epitope SEQ 4 (both non-conjugated to melanin), at various concentrations (5 μg/ml to 0.3 ng/ml) and the numbers of IFNg-SFCs (Spot forming cells) were measured after a 18-hour incubation (representative experiments from 3 experiments)
Mice were thus immunized with SEQ ID NO: 14, and it was checked whether T-cell response triggered by SEQ ID NO: 14 was able to similarly recognize the mutated epitote SEQ ID NO: 15 and the native epitope SEQ ID NO: 4.

Substance	T-cell Immune response: mean +/− SEM (number of mice) (HLA-A2/DR1 mice [1])	also measured
KIWEHNVEV [SEQ ID NO: 15]	118 +/− 26 (n = 7) IFNg-SFCs	
C AIIDGVESV (CAIIDGVESV) [SEQ ID NO: 7]	3 +/− 1 (n = 4) IFNg-SFCs	
MIWEHNVEV [SEQ ID NO: 4, reference compound]	3 +/− 1 (n = 7) IFNg-SFCs	T-cell Immune response: mean +/− SEM (number of mice) (HLA-A2/DR1 mice [2]): 11 +/− 4 (n = 7) IFNg-SFCs; reactive CD8+ T cells against the peptide after immunization of patients (patients): found in some patients
H MIWEHNVEV (HMIWEHNVEV) [SEQ ID NO: 11]	60 +/− 25 (n = 7) IFNg-SFCs	
PK MIWEHNVEV (PKMIWEHNVEV) [SEQ ID NO: 12]	61 +/− 30 (n = 7) IFNg-SFCs	
CKVFAGIPTV [SEQ ID NO: 5]	288 +/− 37 (n = 8) IFNg-SFCs	immune response after immunization (in words) (HLA-A2/DR1 mice [1]): powerful immune response
CVLDSHIHAYVNALLIPGPAGK [SEQ ID NO: 6]	7 +/− 5 (n = 4) IFNg-SFCs	
KK KIWEHNVEV (KKKIWEHNVEV) [SEQ ID NO: 14]	287 +/− 26 (n = 8) IFNg-SFCs	immune response after immunization (in words) (HLA-A2/DR1 mice [1]): strong CD8 immune response; T-cell Immune response: mean +/− SEM (number of mice) (HLA-A2/DR1 mice [2]): 25 +/− 13 (n = 7) IFNg-SFCs; CD8 immune response after immunization without melanin (in words) (HLA-A2/DR1 mice [2]; peptide with CpG-28, no melanin, compared with SEQ ID NO: 4): more potent; reactivity against the native epitope (SEQ ID NO: 4) of lymphocytes primed with the modified epitope, compared with reactivity against the modified epitope (transgenic SURE mice): even higher
C MIWEHNVEV (CMIWEHNVEV) [SEQ ID NO: 8]	24 +/− 8 (n = 8) IFNg-SFCs	immune response after immunization (in words) (HLA-A2/DR1 mice [1]): able to trigger an immune response; immune response after immunization (in words) (HLA-A2/DR1 mice [1]; listed as SEQ 8): weak
P MIWEHNVEV (PMIWEHNVEV) [SEQ ID NO: 10]	40 +/− 15 (n = 7) IFNg-SFCs	
KP MIWEHNVEV (KPMIWEHNVEV) [SEQ ID NO: 13]	80 +/− 34 (n = 7) IFNg-SFCs	
